From patent publication US20260248734A1, “COMPOSITIONS AND METHODS FOR TREATING METABOLIC DISEASES/DISORDERS” (priority 2023, published 2026) come the findings set out here.

The test system of assay [1] is differentiated human adipocytes. The assay can be described thus: Thermogenic gene expression in human adipocytes in vitro by real-time PCR. Type of assay: cell-based. The method, then: RNA from iWAT tissue and cells was isolated and purified using a Qiagen Rneasy Mini Kit (Valencia, CA) according to manufacturer guidelines. mRNA concentrations were measured using a Take3 Micro-Volume Plate (BioTek, Winooski, VT), then normalized to 150 ng of mRNA for conversion to cDNA. cDNA was synthetized using random hexamer primers and an iScript cDNA-synthesis kit (Biorad). The quantitative RT-PCR reactions were performed using the So Advanced™ Universal SYBER Green Supermix kit (Biorad) in a CFX96 Touch Real-Time PCR Detection System (BioRad, Hercules, CA). Fold expression levels were calculated using the […]. Transcript levels were normalized to 18S ribosomal RNA levels in all experiments. Primer (Table 1) specificity was tested by assessing the melting curve.

A further assay has as its system ASCs. The assay can be described thus: Hydrogen peroxide (ROS-Glo H2O2) assay of ASCs differentiated on coated surfaces. Type of assay: cell-based, mice. Conditions: compared to uncoated surface.
The test system of assay [2] is adipose derived stem cells (ASCs) isolated from WT SubQ WAT. Kind of assay: Beige differentiation of ASCs on ECM protein coated surfaces, beige marker expression by RT-PCR. As to conditions: for reduction in UCP1 relative to uncoated surfaces: ASCs beige-differentiated on coated surface; for COX7A1 expression: differentiated cells on coated surface. Type of assay: cell-based, mice. The method, then: Immunohistochemistry. SubQ fat was harvested from animals using sterile techniques, cut into small pieces and fixed in 4% paraformaldehyde for 24 hours at 4 degrees. Tissue pieces were then washed with phosphate buffered saline (PBS), permeabilized with 0.5% triton in PBS and blocked with 10% donkey serum; followed by incubation with either 1) ITA7 antibody (1:100, Novus Biologics NBP1-86,118) and Griffonia simplicifolia isolectin conjugated with Rhodamine to labels endothelial cells, or 2) ITA7 antibody and CD68 antibody (1:100, Santa Cruz sc-70761) to label macrophages for 48 hours at 4 degrees. After washes (3×15 minutes), the tissues were incubated with second antibodies (Alexa Fluor 647 Donkey Anti-Rabbit IgG and/or TRITC Goat Anti-Mouse, IgG), BODIPY to stain lipid droplets and DAPI to stain the nuclei, for 2 hours at room temperature. Confocal imaging. A confocal laser-scanning microscope was used to image samples (Leica TCS SP8 Confocal Microscope; Buffalo Grove, IL). Adipocytes labeled by BODIPY and ITA7 labeled by Alexa Fluor 647 were imaged simultaneously in two channels, with Rhodamine-labeled endothelial tissue or TRITC CD68-labeled macrophages, and DAPI nuclei imaged in series. Confocal image stacks were obtained with a 63×oil immersion lens (NA 1.4). Laser intensity, confocal aperture, and photomultiplier gain were kept constant across samples. Image processing and analysis: Confocal image stacks were processed and analyzed using Leica LASX software version 3.5.2 (Wetzlar, Germany). The Alexa 647 and Rhodamine channels were thresholded and the intersection between both layers was quantified in order to characterize the colocalization between ITA7 and endothelial cells. In separate tissue, the colocalization between ITA7 and CD68 positive cells was also quantified. Using 3D images, the Alexa 647, Rhodamine or TRITC and intersection area per cell were calculated. cytoNet image analysis: cytoNet is a software accessible over the web that quantifies the spatial relationships in cell communities using principles of graph theory and evaluates the effect of cell-cell interactions on individual cell phenotypes (https://www.braininitiative.org/toolmakers/resources/cytonet/). Image files were segmented manually and provided as input to cytoNet. Because blood vessels have noncircular shapes, the minimum distance between object perimeters was computed in order to define graph edges. The resulting cell-to-cell perimeter distance and cells characteristics were analyzed in WT and KO SubQ WAT images. RNA isolation and quantitative RT-PCR. RNA from tissue and cells was isolated and purified using a Qiagen RNeasy Mini Kit (Valencia, CA) according to manufacturer guidelines. mRNA concentrations were measured using a Take3 Micro-Volume Plate (BioTek. Winooski, VT), then normalized to 150 ng of mRNA for conversion to cDNA. cDNA was synthetized using random hexamer primers and an iScript cDNA-synthesis kit (Biorad). The quantitative RT-PCR reactions were performed using the So Advanced™ Universal SYBER Green Supermix kit (Biorad) in a CFX96 Touch Real-Time PCR Detection System (BioRad, Hercules. CA). Fold expression levels were calculated using the 2^ΔΔCt method. Transcript levels were normalized to 18S ribosomal RNA levels in all experiments that used mice cells (FIGS. 3, 4, 7), or the GAPDH reference gene in experiments with human cells (FIG. 6). Primer (Table 1) specificity was tested by the assessing the melting curve. Western blot analysis. Cells were lysed using CelLytic (Sigma, St. Louis, MO) and tissue was lysed using RIPA buffer (EMD Millipore, Billerica, MA) and protease inhibitor cocktail (Fischer Scientific, Waltham, MA). Protein concentration was determined using the Bio-Rad DC protein assay (Bio-Rad Laboratories, Hercules. CA). […]

Take `C=C[C@@]1(C)CC(=O)[C@]2(O)[C@@]3(C)[C@@H](O)CCC(C)(C)[C@@H]3[C@H](O)[C@H](OC(C)=O)[C@@]2(C)O1` [FSK, (13R)-1α,6β,9α-Trihydroxy-11-oxo-8α,13-epoxylabd-14-en-7β-yl acetate]: the “peak of efficacy on browning after administration” value in assay [1] is recorded as ~ 6 h. For the same molecule, in assay [1] (6 h of treatment), the “increase in Cox7A1 gene expression” value is on record as 1.5 fold and the “increase in UCP1 gene expression” value was ~ 5 fold.
In the case of “LAMA4: Laminin α4 recombinant protein (R&D Systems) coated on culture plates”, in the assay with ASCs, the ROS levels result is listed as “higher ROS levels”. Besides, in assay [2], the “reduction in UCP1 relative to uncoated surfaces” value came out at 51.4% and the COX7A1 expression entry is on record as “significant decrease”.
Consider “CO1A1: Collagen 1A1 recombinant protein (R&D Systems) coated on culture plates”, for which, in assay [2], the “reduction in UCP1 relative to uncoated surfaces” value is on record as 71.7% and the COX7A1 expression entry was “significant decrease”. The PGC1A levels entry in assay [2] (compared to uncoated surfaces) was “significant decrease”.

B1: CO3A1: Collagen 3A1 recombinant protein (R&D Systems) coated on culture plates (protein, UniProt P02461 154-1221, looked up)
Collagen alpha-1(III) chain: QYDSYDVKSGVAVGGLAGYPGPAGPPGPPGPPGTSGHPGSPGSPGYQGPPGEPGQAGPSGPPGPPGAIGPSGPAGKDGESGRPGRPGERGLPGPPGIKGPAGIPGFPGMKGHRGFDGRNGEKGETGAPGLKGENGLPGENGAPGPMGPRGAPGERGRPGLPGAAGARGNDGARGSDGQPGPPGPPGTAGFPGSPGAKGEVGPAGSPGSNGAPGQRGEPGPQGHAGAQGPPGPPGINGSPGGKGEMGPAGIPGAPGLMGARGPPGPAGANGAPGLRGGAGEPGKNGAKGEPGPRGERGEAGIPGVPGAKGEDGKDGSPGEPGANGLPGAAGERGAPGFRGPAGPNGIPGEKGPAGERGAPGPAGPRGAAGEPGRDGVPGGPGMRGMPGSPGGPGSDGKPGPPGSQGESGRPGPPGPSGPRGQPGVMGFPGPKGNDGAPGKNGERGGPGGPGPQGPPGKNGETGPQGPPGPTGPGGDKGDTGPPGPQGLQGLPGTGGPPGENGKPGEPGPKGDAGAPGAPGGKGDAGAPGERGPPGLAGAPGLRGGAGPPGPEGGKGAAGPPGPPGAAGTPGLQGMPGERGGLGSPGPKGDKGEPGGPGADGVPGKDGPRGPTGPIGPPGPAGQPGDKGEGGAPGLPGIAGPRGSPGERGETGPPGPAGFPGAPGQNGEPGGKGERGAPGEKGEGGPPGVAGPPGGSGPAGPPGPQGVKGERGSPGGPGAAGFPGARGLPGPPGSNGNPGPPGPSGSPGKDGPPGPAGNTGAPGSPGVSGPKGDAGQPGEKGSPGAQGPPGAPGPLGIAGITGARGLAGPPGMPGPRGSPGPQGVKGESGKPGANGLSGERGPPGPQGLPGLAGTAGEPGRDGNPGSDGLPGRDGSPGGKGDRGENGSPGAPGAPGHPGPPGPVGPAGKSGDRGESGPAGPAGAPGPAGSRGAPGPQGPRGDKGETGERGAAGIKGHRGFPGNPGAPGSPGPAGQQGAIGSPGPAGPRGPVGPSGPPGKDGTSGHPGPIGPPGPRGNRGERGSEGSPGHPGQPGPPGPPGAPGPCCGGVGAAAIAGIGGEKAGGFAPYYG
For B1, in assay [2], the “reduction in UCP1 relative to uncoated surfaces” value is 91.16% and the COX7A1 expression result is given as “significant decrease”.
